We go through eight compounds from US8148359B2, “Chelating agents of metal ions, their methods of preparation and their applications” (Commissariat a l'Energie Atomique, priority 2009, dated 2012).

Read-outs that look alike come from different tables or passages of the source.

Test [1] is described as follows: Cu(I) affinity by competition with bathocuproine disulfonate (BCS), UV-visible. The note with it: for BCS equivalents (number of equivalents of BCS relative to Cu necessary to displace 50% of the copper complexed by the ligand): [Cu]0 = 0.9 [L]o, 20 mM phosphate buffer, pH 7.4, 298 K; for Cu/Zn Sel. (log Kapp(Cu) - log Kapp(Zn)): Cu(I) versus Zn(II); for Kapp for Cu(I): pH 7.4, 20 mM phosphate buffer. Format: binding. The method, then:
Since the —SH thiol functions of the chelating agents are capable of becoming oxidized in air, all the solutions were prepared in a glovebox under an argon atmosphere. Ligand solutions were then prepared, before each experiment, using water that had been deoxygenated and purified with a Millipore Milli-Q® system containing 20 mM of a solution of phosphate buffer (pH=7.4) and of acetonitrile (v/v: 9/1).
This method uses 5,5′-dithiobis-2-nitrobenzoic acid (DNTB) as indicator, each free thiol group present in the ligand producing 1 equivalent of TNB^2− (ε^412 nm (TNB^2−)=14 150 M^−1.cm^−1, ε^412 nm being the molar extinction coefficient for TNB^2− at 412 nm). The concentrations of the ligand solution are between 30 and 100 μm.
The solutions of Cu(I) copper were prepared by dissolving an appropriate amount of Cu(CH3CN)4 PF6 in deoxygenated acetonitrile. The final concentration is determined by adding an excess of sodium bathocuproine disulfonate (Na2BCS) and by measuring the absorbance of the Cu(BCS)2^3− (λmax=483 nm, ε=13 300 M^−1.cm^−1).
The affinity constants were measured by means of a known competitor having a strong affinity for Cu(I), bathocuproine disulfonate (BCS), which forms Cu(I) complexes of known stability according to the reaction below:
The higher this percentage, the higher the affinity of the sulfur-containing ligand for Cu(I).
The complexes of Cu(I) copper with the ligands are quantitatively determined with bathocuproine disulfonate (BCS) with the aim of measuring their affinity constants. […] The formation of the complex is then carried out by stirring the mixture for 10 minutes under argon.
Aliquots of a solution of bathocuproine disulfonate (BCS) in the same buffer solution are then added to the ligand-copper complex.
The UV-visible spectra are then recorded, and the absorbance stability is verified before the addition of the other aliquots.

Test [2] can be described thus: Apparent complexation constants of known chelating agents, Hg(II). Format: binding. As to conditions: pH = 7.4; log Kapp(Hg) - log Kapp(Zn). The text has this:
(§1) In general, the formation of a complex from a metal M and n ligands L is written: M+nL⇄[M(L)n]
(§2) Associated with this reaction is an apparent complexation constant log Kapp, where: Kapp=[ML]/[M][L]tot in which: • [ML] is the concentration of complex, • [M] is the concentration of metal, and • [L]tot is the concentration of […] ligand (whatever its protonated form).

The conditions of test [3]: pH = 7.4; difference matches the Cu(II) and Zn(II) values of the table.
Description: as §1, §2

A short description of test [4]: Apparent complexation constants of known chelating agents, Cu(I). The note with it: pH = 7.4; difference matches the Cu(I) and Zn(II) values of the table. Format: binding.
Description: Associated with this reaction is an apparent complexation constant log Kapp, where: Kapp=[ML]/[M][L]tot in which: • [ML] is the concentration of complex, • [M] is the concentration of metal, and • [L]tot is the concentration of free ligand (whatever its protonated form).
Test [5] in a line: Hg(II) affinity by competition with EDTA. It counts as binding. The protocol: For Hg(II), which has a very high affinity for thiolate ligands, we performed a competition with EDTA having a known affinity constant (cf. Table IV) according to the following reaction: HgL+EDTA→L+HgEDTA
A solution of mercury is prepared by dissolving HgCl2 in water. An HgL complex is formed by adding aliquots of this mercury solution to a solution of ligand in a 20 mM phosphate buffer solution at pH=7.4, up to 0.9 equivalent. The change in the LMCT band for Hg(II) at 290 nm is subsequently followed by titration with a 5 mM solution of Na2EDTA.

Consider `O=C(CN(CC(=O)NC(CS)C(=O)O)CC(=O)NC(CS)C(=O)O)NC(CS)C(=O)O` (stereo not drawn) [Compound 3, NTA(CysOH)3], for which the “BCS equivalents (number of equivalents of BCS relative to Cu necessary to displace 50% of the copper complexed by the ligand)” value in test [1] was found to be 3.5 equivalents.

Take `CCOC(=O)[C@H](CS)NC(=O)CN1CCN(CC(=O)N[C@@H](CS)C(=O)OCC)CCN(CC(=O)N[C@@H](CS)C(=O)OCC)CC1` [Compound 9, NOTA(CysOC2H5)3]: in test [1], the “Cu/Zn Sel. (log Kapp(Cu) - log Kapp(Zn))” value is 7.5-9.5 and the “BCS equivalents (number of equivalents of BCS relative to Cu necessary to displace 50% of the copper complexed by the ligand)” value was 12 equivalents.

`NCCNCCNCCN` [Trien, triethylenetetramine]: in test [2], the Hg/Zn selectivity is reported as 12.7. This compound had a Cu/Zn selectivity in test [3] of 8.1.

For the compound `O=C(O)CN(CCN(CC(=O)O)CC(=O)O)CC(=O)O` [EDTA, ethylenediaminetetraacetic acid], the Hg/Zn selectivity in test [2] was found to be 5. This compound also came in with a Cu/Zn selectivity in test [3] of 2.3.

`NC(=O)[C@H](CS)NC(=O)CN(CC(=O)N[C@@H](CS)C(N)=O)CC(=O)N[C@@H](CS)C(N)=O` [Compound 6, NTA(CysNH2)3]: in test [1], the “BCS equivalents (number of equivalents of BCS relative to Cu necessary to displace 50% of the copper complexed by the ligand)” value stood at 50 equivalents and the “Kapp for Cu(I)” value is 10^19.

Take `OCC(S)CS` (stereo not drawn) [BAL, 2,3-dimercaptopropanol]: in test [2], the Hg/Zn selectivity was 12.2.

Regarding `CC(C)(S)[C@@H](N)C(=O)O` [Pen, D-penicillamine], the Hg/Zn selectivity in test [2] was 9.1. Moreover, the Cu/Zn selectivity in test [4] came out at 2.5.

On to `CCOC(=O)C(CS)NC(=O)CN(CC(=O)NC(CS)C(=O)OCC)CC(=O)NC(CS)C(=O)OCC` (stereo not drawn) [Compound 4, NTA(CysOC2H5)3], for which the “Hg/Ca Sel. (log Kapp(Hg) - log Kapp(Ca))” value in test [5] (Hg(II) versus Ca(II)) is given as greater than 19.5. In addition, the “Hg/Zn Sel. (log Kapp(Hg) - log Kapp(Zn))” value in test [5] (Hg(II) versus Zn(II)) is recorded as greater than 13.4. Also, the “Cu/Ca Sel. (log Kapp(Cu) - log Kapp(Ca))” value in test [1] (Cu(I) versus Ca(II)) is on record as greater than 16. Further, in test [1], the “Cu/Zn Sel. (log Kapp(Cu) - log Kapp(Zn))” value stood at 9.9, the “BCS equivalents (number of equivalents of BCS relative to Cu necessary to displace 50% of the copper complexed by the ligand)” value came out at 57 equivalents and the “Kapp for Cu(I)” value was 10^19.
